The values below come from ChEMBL document CHEMBL1130835, “Peptidyl beta-homo-aspartals: specific inhibitors of interleukin-1 beta converting enzyme and its homologues (caspases)” (Bioorg Med Chem Lett, 1998).

Usually IC50 stands for the concentration needed to halve the response being measured.

In one test the target is T1, Papain (Carica papaya, UniProt P00784).
T1 sequence (P00784 whole entry): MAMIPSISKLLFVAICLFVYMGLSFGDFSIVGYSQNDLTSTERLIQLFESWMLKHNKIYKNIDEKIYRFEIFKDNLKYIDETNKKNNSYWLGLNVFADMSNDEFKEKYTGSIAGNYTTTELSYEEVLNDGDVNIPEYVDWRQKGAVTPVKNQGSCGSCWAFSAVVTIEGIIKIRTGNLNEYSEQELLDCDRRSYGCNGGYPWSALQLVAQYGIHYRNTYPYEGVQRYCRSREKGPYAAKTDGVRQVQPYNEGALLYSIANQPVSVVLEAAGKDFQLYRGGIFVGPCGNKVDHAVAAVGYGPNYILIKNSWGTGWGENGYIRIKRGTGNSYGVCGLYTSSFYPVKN
As to the kind of experiment: Ability to inhibit papain was evaluated by amidolytic method using fluorogenic or chromogenic substrates.

Test [1] addresses T2, Caspase-3 (Homo sapiens, UniProt P42574).
T2 sequence (P42574 whole entry): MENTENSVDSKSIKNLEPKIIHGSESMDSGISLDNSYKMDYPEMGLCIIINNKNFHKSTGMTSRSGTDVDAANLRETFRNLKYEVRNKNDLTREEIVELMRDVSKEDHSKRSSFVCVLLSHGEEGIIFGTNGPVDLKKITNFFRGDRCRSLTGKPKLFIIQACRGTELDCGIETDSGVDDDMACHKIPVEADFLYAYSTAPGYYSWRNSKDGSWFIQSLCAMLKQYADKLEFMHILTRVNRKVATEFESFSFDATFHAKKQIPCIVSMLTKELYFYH
As to the kind of experiment: Amidolytic activity of THP.1 cell lysate against Caspase-3 using C3-Asp-AMC as a substrate. Type of test: cell-based.

Test [2] has as its target T3, Caspase-1 (Homo sapiens, UniProt P29466).
T3 sequence (P29466 whole entry): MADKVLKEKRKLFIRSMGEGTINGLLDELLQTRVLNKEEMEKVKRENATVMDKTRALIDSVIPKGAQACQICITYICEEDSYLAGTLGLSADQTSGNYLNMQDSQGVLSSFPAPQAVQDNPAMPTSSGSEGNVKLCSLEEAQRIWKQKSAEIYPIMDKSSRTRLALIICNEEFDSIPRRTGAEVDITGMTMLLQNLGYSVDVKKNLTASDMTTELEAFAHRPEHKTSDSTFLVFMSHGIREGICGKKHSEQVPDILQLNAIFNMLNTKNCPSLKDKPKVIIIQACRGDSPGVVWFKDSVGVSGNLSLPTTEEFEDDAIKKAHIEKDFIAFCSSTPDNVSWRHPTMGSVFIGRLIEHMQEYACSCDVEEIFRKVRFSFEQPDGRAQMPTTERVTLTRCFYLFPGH
As to the kind of experiment: Amidolytic activity of THP.1 cell lysate against IL-1 beta converting enzyme using C1-Asp-AMC as a substrate. Type of test: cell-based.

Test [3] addresses T3, Caspase-1. Put plainly: Ability to inhibit IL-1 beta converting enzyme was evaluated in LPS-stimulated human whole blood. Type of test: tissue-based.
Test [4] concerns the target T2, Caspase-3. Put plainly: Amidolytic activity of THP.1 cell lysate against Caspase-3 using C3-Asp-AMC as a substrate at 10e -4 M concentration; NI is No Inhibition.
The next test addresses Serine protease 1 (Homo sapiens, UniProt P07477). As to the kind of experiment: Ability to inhibit Trypsin was evaluated by amidolytic method using fluorogenic or chromogenic substrates.
Another test deals with Prothrombin (Homo sapiens, UniProt P00734). Put plainly: Ability to inhibit Thrombin was evaluated by amidolytic method using fluorogenic or chromogenic substrates.

Structures are written as SMILES.

Chain of Serine protease 1 (P07477 whole entry): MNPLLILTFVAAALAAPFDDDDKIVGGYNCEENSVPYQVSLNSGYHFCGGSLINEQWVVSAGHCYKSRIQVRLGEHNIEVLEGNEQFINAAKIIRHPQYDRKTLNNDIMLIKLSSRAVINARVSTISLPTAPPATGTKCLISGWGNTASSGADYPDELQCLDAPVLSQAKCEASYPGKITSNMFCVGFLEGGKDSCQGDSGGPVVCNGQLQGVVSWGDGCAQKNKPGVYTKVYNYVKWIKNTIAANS

For the molecule `CC[C@H](C)[C@H](NC(=O)[C@H](CCCN=C(N)N)NC(=O)OCc1ccccc1)C(=O)N[C@H](C=O)Cc1ccccc1`, the IC50 against Papain came out at 70 nM. That is a double-digit nanomolar value. On the same count and under the same terms, next, `CC[C@H](C)[C@H](NC(=O)[C@H](CCCN=C(N)N)NC(=O)OCc1ccccc1)C(=O)N[C@H](CC=O)Cc1ccccc1`: 65000 nM; `CC[C@H](C)[C@H](NC(=O)[C@H](CCCN=C(N)N)NC(=O)OCc1ccccc1)C(=O)N[C@@H](C=O)Cc1ccccc1`: 8500 nM. In the case of `CC(=O)N[C@@H](CC(=O)O)C(=O)N[C@@H](CCC(=O)O)C(=O)N[C@H](C(=O)N[C@H](CC=O)CC(=O)O)C(C)C`, the results for the IC50 against Caspase-3 [1] and against Caspase-1 [2] were 438 nM and 22.3 nM, respectively. Turning to `CC(C)COC(=O)N[C@@H](Cc1ccccc1)C(=O)N[C@@H](C=O)CCCN=C(N)N`, at Papain, the IC50 was determined as 12500 nM.

With `CC(C)COC(=O)N[C@@H](Cc1ccccc1)C(=O)N[C@H](C=O)CCCNC(=N)N`, the IC50 against Papain is 130 nM. `CC(=O)N[C@@H](Cc1ccc(O)cc1)C(=O)N[C@H](C(=O)N[C@@H](C)C(=O)N[C@H](CC=O)CC(=O)O)C(C)C`: the IC50 was 2900 nM against Caspase-1 [3], 142000 nM against Caspase-1 [2] and “Not Active” against Caspase-3 [4]. In the case of `CC(C)(C)OC(=O)N[C@H](Cc1ccccc1)C(=O)N1CCC[C@@H]1C(=O)N[C@H](CC=O)CCCN=C(N)N`, the IC50 against Serine protease 1 was determined as 1760 nM; on Prothrombin, 190 nM. The matching figures for `CC(C)(C)OC(=O)N[C@H](Cc1ccccc1)C(=O)N1CCC[C@@H]1C(=O)N[C@@H](C=O)CCCN=C(N)N`: 1790 nM and 5440 nM.

Consider `CC(=O)N[C@@H](Cc1ccc(O)cc1)C(=O)N[C@H](C(=O)N[C@@H](C)C(=O)N[C@H](C=O)CC(=O)O)C(C)C`, for which the values for the IC50 on Caspase-1 [3], against Caspase-3 [1] and against Caspase-1 [2] were 2000 nM, 190000 nM and 68000 nM, respectively. On Papain, `CC(C)COC(=O)N[C@@H](Cc1ccccc1)C(=O)N[C@H](CC=O)CCCNC(=N)N` registered an IC50 of 105000 nM. As to `CC(=O)N[C@@H](CC(=O)O)C(=O)N[C@@H](CCC(=O)O)C(=O)N[C@H](C(=O)N[C@H](C=O)CC(=O)O)C(C)C`, the concentration for half-maximal inhibition (IC50) at Caspase-1 [2] was 70000 nM; at Caspase-3 [4], “Not Active”. As to `CC(C)(C)OC(=O)N[C@H](Cc1ccccc1)C(=O)N1CCC[C@@H]1C(=O)N[C@H](C=O)CCCNC(=N)N`, the IC50 stood at 3 nM against Serine protease 1 and 9 nM at Prothrombin.
